For data set [1], the system named is AML 052308 cells.
Experimental: (§1) For each compound, in vitro cell culture studies were performed in which a range of concentrations (0.25-20 μM) was tested for cytotoxicity against leukemia cell lines, primary leukemia specimens and normal bone marrow controls.
Data set [2] concerns M9 ENL cells. In words: cells. The note with it: 24 h.
Experimental: (§2) Carbamate and carbonate derivatives of MMB were also screened for activity against M9 ENL cells at concentrations of 5, 10 and 20 μM (FIG. 10). […] Additionally, succinic amide derivatives of MMB were screened for activity against M9 ENL cells at concentrations of 5, 10 and 20 μM (FIG. 11).
(§3) Ester and amide derivatives of melampomagnolide B were screened for anti-leukemic activity against M9ENL AML cell lines (FIG. 12; FIG. 14; FIG. 15; FIG. 16). For each compound, in vitro cell culture studies were performed in which a range of concentrations (0.25-20 μM) was tested for cytotoxicity against leukemia cell lines, primary leukemia specimens and normal bone marrow controls.
For data set [3], the system named is AML 052308 cells. In words: Antileukemic activity against AML 052308 cells in culture. The note with it: for Fold more potent than parthenolide: AML 052308 cells.
Experimental: as §1
In data set [4] the test system is M9 ENL cells.
Experimental: as §2, §3
The next data set relates to cord blood cells. Briefly: Toxicity against cord blood cells. Format: cell-based.
The subject of data set [5] is AML 123009 primary isolate. Briefly: Antileukemic activity against AML 123009 primary isolate.
Experimental: as §1
In data set [6] the test system is AML 100510 primary isolate. In words: Antileukemic activity against AML 100510 primary isolate.
Experimental: as §1

The structures appear in SMILES notation. Where two headings read alike, the source gives them in different places.

For orientation: EC50 means the midpoint of the concentration-response curve. Low readings indicate an effect from little substance, high ones a need for much substance. Consider `C=C1C(=O)O[C@H]2[C@H]1CC/C(COC(=O)c1ccc3cc[nH]c3c1)=C\CC[C@@]1(C)O[C@@H]21` [BS-2-05], for which, in the data set on AML 052308 cells [1], the “Fold more cytotoxic than MMB” value was “around 7 fold”. This compound had an EC50 in the data set with M9 ENL cells [2] of 2500 nM. In the data set on AML 052308 cells [3], a half-maximal effect (EC50) was put at 2.5 µM and the “Fold more potent than parthenolide” value was “around 3 fold”.

As for `C=C1C(=O)O[C@H]2[C@H]1CC/C(COC(=O)c1ccc3ccccc3c1)=C\CC[C@@]1(C)O[C@@H]21` [JVM 3-36, ((1aR,7aS,10aS,10bS,E)-1a-methyl-8-methylene-9-oxo-1a,2,3,6,7,7a,8,9,10a,10b-decahydrooxireno[2′,3′:9,10]cycodeca[1,2-b]furan-5-yl)methyl 2-naphthoate], the “Fold greater cytotoxicity than PTL” value with M9 ENL cells [4] (M9 cell lines) worked out at 3 fold. In the data set with M9 ENL cells [2], this compound returned an EC50 of 1700 nM.

In turn, `C=C1C(=O)OC2C1CC/C(CO)=C\CCC1(C)OC21` (stereo not drawn) [MMB, Melampomagnolide B] came in with an EC50 in the data set on AML 052308 cells [3] of 16 µM.

For `C=C1C(=O)O[C@H]2[C@H]1CC/C(COC(=O)Cc1c[nH]c3ccccc13)=C\CC[C@@]1(C)O[C@@H]21` [BS-2-32], the “Fold more cytotoxic than MMB” value in the data set with AML 052308 cells [1] was “around 7 fold”. The EC50 in the data set with M9 ENL cells [4] (M9ENL AML cell lines, 24 hours of drug exposure) was 4 µM; with AML 052308 cells [3] (AML 052308 cells in culture) it was 4 µM. The “Fold more potent than parthenolide” value in the data set on AML 052308 cells [3] was “around 3 fold”.

For the compound `C=C1C(=O)O[C@H]2[C@H]1CC/C(COC(=O)/C=C/c1c[nH]c3ccccc13)=C\CC[C@@]1(C)O[C@@H]21` [BS-2-04], the figures for the EC50 in the data set on cord blood cells and with AML 052308 cells [3] (AML 052308 cells in culture) were 750 nM and 0.72 µM, respectively. Besides, the “Fold more cytotoxic than MMB” value with AML 052308 cells [1] is given as “about 22 fold”. In addition, the “Antileukemic activity compared to MMB” value (in the data set with M9 ENL cells [4] (M9 ENL cell line); in data set [5]; in data set [6]) was “good anti-leukemic activity compared to parent compound MMB” each time. Further, the “Fold more potent than parthenolide” value in the data set with AML 052308 cells [3] is recorded as 10 fold.

Values taken from patent publication US9920063B2, “Melampomagnolide B derivatives” (Board of Trustees of the University of Arkansas, priority 2013, dated 2018).
